Assay type in all cases: cell-based, Human
The subject of test [1] is VLB/OV3. The test is described as follows: Resistance ratio of SKVLB over SKOV3 cytotoxicity (VLB/OV3). The following applies: ratio SKVLB to SKOV3; Table 1; 2880 min. The method, then:
The microculture tetrazolium assay was used to test in vitro cytotoxicity. This assay is described in Plumb, J. A. et al., 1989 Cancer Research 49, 4435-4440, which is herein incorporated by reference. The cytotoxicity of compounds towards tumor cells is measured in vitro using the assay. This assay method is based upon the ability of live, but not dead cells to reduce the yellow water soluble dye 3-(4,5-dimethylthiazol-2-yl)-2,5-diphenyltetrazolium bromide (MTT) to its water insoluble purple formazan product.
SKOV3 (Ovarian adenocarcinoma)--provided by Dr. V. Ling, Ontario Cancer Institute.
SKVLB (Ovarian; multidrug resistant)--Dr. V. Ling, Ontario Cancer Institute.
For each assay, doxorubicin is included as an inter-assay standard. This allows us to monitor the behaviour of the assay in general, and in particular, to check that the SKVLB line has maintained its resistant phenotype.
Cells are plated out in 100 μl of culture medium in the microtiter plates at a density of around 1,500-4,000 cells per well. The plates are incubated overnight to allow the cells to become adherent after which the test compound is added (100 μl of appropriate dilution per well). The cells are incubated with test compound at 37° C. for 48 h after which the compound is replaced with fresh medium. After a further 48 h incubation at 37° C., 50 μl of MTT solution (2 mg/ml) is added to each well. The plates are incubated in the dark for 4 h at 37° C. after which the medium is removed. The MTT formazan product is extracted from the cells by the addition of 200 μl DMSO followed by 50 μl of Sorensen's buffer. The plates are shaken briefly and the absorbance at 570 nm is read using a Molecular Devices UV max plate reader. Curves are fit to the MTT assay data using a four parameter logistic equation, and the data are normalized to fit a 0% to 100% survival scale.

Test [2] deals with T47D (Ductal carcinoma of breast). The test is described as follows: In vitro cytotoxicity, microculture tetrazolium (MTT) assay, T47D. The following applies: 48 h with compound, further 48 h, Table 1. In short, it runs like this: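 Adherent cells (1,500-4,000/well) were exposed to compound in 1:3 dilutions from 100 μM to 1.7 nM, in quadruplicate, for 48 h at 37° C, followed by 48 h in fresh medium. MTT formazan was read at 570 nm, and data were fitted by four-parameter logistic on a 0-100% survival scale.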

Test [3] deals with SKOV3 (Ovarian adenocarcinoma). Nature of the test: In vitro cytotoxicity, microculture tetrazolium (MTT) assay, SKOV3. The note with it: SKOV3 ovarian adenocarcinoma, 48 h with compound, further 48 h, MTT, Table 1. In short, it runs like this:
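Cells plated overnight, then exposed to compound (1:3 dilutions, 100 μM to 1.7 nM, quadruplicate) 48 h at 37 °C, followed by 48 h in fresh medium. MTT 4 h, formazan extracted in DMSO/Sorensen's buffer pH 10.5, A570; four-parameter logistic fit on 0–100% survival scale.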

For test [4], the system named is HT 29 (Colon adenocarcinoma). Nature of the test: In vitro cytotoxicity, microculture tetrazolium (MTT) assay, HT29. The following applies: further 48 h, Table 1. The procedure, abridged:
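HT29 cells exposed to compound (1:3 series, 100 μM to 1.7 nM, quadruplicate) for 48 h at 37 °C, then 48 h in fresh medium. Viability by MTT reduction, formazan absorbance at 570 nm; four-parameter logistic fit on 0-100% survival scale.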

The test system of test [5] is SKVLB (Ovarian; multidrug resistant). The test is described as follows: In vitro cytotoxicity, microculture tetrazolium (MTT) assay, SKVLB. The following applies: Homo sapiens; SKVLB multidrug resistant ovarian; 48 h with compound, further 48 h, MTT; Table 1. In short, it runs like this:
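Multidrug-resistant SKVLB ovarian cells, 1,500–4,000 per well, exposed to compound (1:3 dilutions, 100 μM to 1.7 nM, quadruplicate) for 48 h at 37 °C, then 48 h in fresh medium. Viability by MTT reduction, formazan read at 570 nm; four-parameter logistic fit on a 0–100% survival scale.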

Test [6] deals with Lox (Melanoma). Nature of the test: In vitro cytotoxicity, microculture tetrazolium (MTT) assay, LOX. The note with it: 48 h with compound, further 48 h, Table 1. The procedure, abridged: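 LOX melanoma cells, 1,500–4,000 per well, exposed to compound (1:3 dilutions, 100 μM to 1.7 nM) for 48 h at 37° C., then 48 h in fresh medium. MTT reduction read at 570 nm; four-parameter logistic fit normalized to 0–100% survival.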

Setting [7] is: Homo sapiens, HT-29, 48 h with compound.

Here are results for 13 compounds from US5606037A, “Processes antineoplastic heteronaphthoquinones” (BioChem Pharma Inc., priority 1995, dated 1997).

As for `CC(=O)C1CC2=C(C(=O)c3ccccc3C2=O)C(OCC2CCN(C(=O)OC(C)(C)C)CC2)O1.Cl` (racemic) [BCH2068, Methyl-(1-O-[N-BOC-4-piperidine-methanol]-5,10-dioxo-3,4,5,10-tetrahydronaphthaleno-[2,3-c]pyran-3-yl) ketone, racemic, hydrochloride], the VLB/OV3 in test [1] is recorded as 1.

The term IC50 denotes the concentration that inhibits the measured activity by half. Consider `CO[C@@H]1O[C@@H](C(=O)O)CC2=C1C(=O)c1ccccc1C2=O` (relative stereo) [BCH2045, (1,3-trans)-1-methoxy-3-carboxyl-5,10-dioxo-3,4,5,10-tetrahydro-1H-naphtho-[2,3-c]-pyran], for which the half-maximal inhibitory concentration (IC50) came to 13 µM in test [2] (Homo sapiens); 5.3 µM in test [3] (Homo sapiens, SK-OV-3); 1.11 µM in test [4] (setting [7]); 15 µM in test [5]; 4.6 µM in test [6] (Homo sapiens). The VLB/OV3 in test [1] is 3.

Regarding `CC(C)[C@H]1CC2=C(C(=O)c3ccccc3C2=O)[C@H](O[C@H]2C[C@H](NC(=O)C(F)(F)F)[C@H](O)[C@H](C)O2)O1` [BCH2052, (1'S, 1S, 3R)-5,10-dioxo-3-isopropyl-1-(2',3',6'-trideoxy-3'-trifluoroacetamido-L-lyxohexopyranose)-3,4,5,10-tetrahydro-1H-naphtho-[2,3-c]-pyran], the half-inhibitory concentration (IC50) in test [2] (Homo sapiens) lay in the range of 9.54 to 23.3 µM; in test [3] (Homo sapiens, SK-OV-3) it was 5.4 to 7.01 µM; in test [4] (setting [7]), 10.6 to 15.4 µM; in test [5] it was 20.5 to 28.2 µM; in test [6] (Homo sapiens) it was 3.04 to 3.22 µM. Besides, the VLB/OV3 in test [1] is given as 3.78-4.02.

As to `C=CC[C@@H]1CC2=C(C(=O)c3ccccc3C2=O)[C@@H](O[C@H]2C[C@H](NC(=O)C(F)(F)F)[C@H](O)[C@H](C)O2)O1` (mixture of isomers) [BCH2031, (1'S,1S,3S) and (1'S,1-R,3-R)-3-([2',3',6'-trideoxy-3'-trifluoroacetamido-4'-hydroxy-L-lyhohexopyranose]-5,10-dioxo-3,4,5,10-tetrahydronaphtho-[2,3-c]-pyran-3-yl)-propene], the concentration for half-maximal inhibition (IC50) in test [2] is 16 µM; in test [3] it was 6 µM; in test [4] (48 h with compound), 8.5 µM; in test [6], 2.8 µM. The VLB/OV3 in test [1] was found to be 3.

Turning to `CC(=O)C1CC2=C(C(=O)c3ccccc3C2=O)C(OC[C@@H]2CCCN2C(=O)OC(C)(C)C)O1` (mixture of isomers) [BCH2067, (1S, 2'S, 3R) and (1R, 2'S, 3S)-methyl-(1-[O-N-BOC-prolinol]-5,10-dioxo-3,4,5,10-tetrahydro-1-H-naphtho[2,3-C]pyran-3-yl) ketone], the half-maximal inhibitory concentration (IC50) in test [2] (Homo sapiens) was determined as 0.54 µM; in test [3] (Homo sapiens, SK-OV-3) it was 1.2 µM; in test [4] (setting [7]) it was 0.323 µM; in test [6] (Homo sapiens), 1.1 µM. In addition, the VLB/OV3 in test [1] is given as 2.

Regarding `CC[C@@H]1CC2=C(C(=O)c3ccccc3C2=O)[C@@H](O[C@H]2C[C@H](NC(=O)C(F)(F)F)[C@H](O)[C@H](C)O2)O1` [BCH2026, (1'S, 1R, 3R)-5,10-dioxo-3-ethyl-1-(2',3',6'-trideoxy-3'-trifluoroacetamido-L-lyxohexopyranose)-3,4,5,10-tetrahydro-1H-naphtho-[2,3-c]pyran], the concentration for half-maximal inhibition (IC50) in test [2] (Homo sapiens) is 31.4 µM; in test [3] (Homo sapiens, SK-OV-3), 15 µM; in test [4] (setting [7]), 22 µM; in test [5], more than 100 µM; in test [6] (Homo sapiens), 2.12 µM. In addition, the VLB/OV3 in test [1] is on record as more than 7.

In the case of `CC(=O)C1CC2=C(C(=O)c3ccccc3C2=O)C(OC2CC(NC(=O)C(F)(F)F)C(O)C(C)O2)O1` [BCH2144, (1R, 3S)-1-(2',3',6'-trideoxy-3'-trifluoroacetamido-4'-hydroxy-1,5-dihydro-L-lyxohexopyranose-2-yl)-5,10-dioxo-3,4,5,10-tetrahydro-1H-naphtho-[2,3-c] pyran], the VLB/OV3 in test [1] is given as 0.75.

`CC(=NO)[C@@H]1CC2=C(C(=O)c3ccccc3C2=O)[C@@H](O[C@H]2C[C@H](NC(=O)C(F)(F)F)[C@H](O)[C@H](C)O2)O1` [BCH2115, (1'S, 1R, 3S)-3 (oximoethyl)-5,10-dioxo-1 (2,3,6-trideoxy-3-trifluoroacetamido-L-lyxohexopyranose)-3,4,5,10-tetrahydro-1H-naphtho-(2,3-c)-pyran]: the IC50 in test [2] turned out to be 5.3 µM; in test [3], 2.3 µM; in test [4] (48 h with compound), 5.6 µM; in test [6], 4 µM. The VLB/OV3 in test [1] was more than 50.

Regarding `CC(=O)O[C@@H]1[C@H](C)O[C@@H](O[C@H]2O[C@H](C(C)=O)CC3=C2C(=O)c2ccccc2C3=O)C(Br)[C@@H]1OC(C)=O` (stereo partly drawn) [BCH2100, (1'S,1R,3S)-methyl-(1-[2',6'-dideoxy-3',4'-diacetoxy-2'-bromo-L-lyxohexopyranose]-5,10-dioxo-3,4,5,10-tetrahydronaphtho-[2,3-c]-pyran-3-yl) ketone], the IC50 in test [2] (Homo sapiens) is 4 µM; in test [3] (Homo sapiens, SK-OV-3), 2.7 µM; in test [4] (setting [7]) it was 5.12 µM; in test [5] it was 8.22 µM; in test [6] (Homo sapiens) it was 3 µM.

Turning to `C[C@@H]1O[C@@H](O[C@H]2O[C@H](COc3ccccc3)CC3=C2C(=O)c2ccccc2C3=O)C[C@H](NC(=O)C(F)(F)F)[C@@H]1O` [BCH2032, (1'S, 1R, 3S)-5,10-dioxo-3-phenyloxymethyl-1-(2',3',6'-trideoxy-3'-trifluoroacetamido-L-lyxohexopyranose)-3,4,5,10-tetrahydro-1H-naphtho-[2,3-c]pyran], the 50% inhibitory concentration (IC50) in test [2] (Homo sapiens) lay within 15.8 to 23 µM; in test [3] (Homo sapiens, SK-OV-3) it was 6.01 to 12 µM; in test [4] (setting [7]) it was 8.49 to 9.3 µM; in test [5] it was 17.6 to 28 µM; in test [6] (Homo sapiens), 2.83 to 5.1 µM.

With `CC(=O)OC1C(C)OC(OC2OC(C(C)=O)CC3=C2C(=O)c2ccccc2C3=O)C(I)C1OC(C)=O` (mixture of isomers) [BCH2065, (1'S,1R,1S) and (1'S,1S,3R)-methyl-(1-[2',6'-dideoxy-3',4'-diacetoxy-2'-iodo-L-arabino-hexopyranose]-5,10-dioxo-3,4,5,10-tetrahydronaphtho-[2,3-c]-pyran-3-yl) ketone], the VLB/OV3 in test [1] is listed as 4.

With `COP(=O)(CC(=O)[C@H]1CC2=C(C(=O)c3ccccc3C2=O)[C@H](O[C@H]2C[C@H](NC(=O)C(F)(F)F)[C@H](O)[C@H](C)O2)O1)OC` [BCH1690, (1'S,1S,3R)-1-(2',3',6'-trideoxy-3'-trifluoroacetamido-L-lyxohexopyranose)-3-dimethylphosphonoacetyl-5,10-dioxo-3,4,5-10-tetrahydro-1H-naphtho-[2,3-c]-pyran], the VLB/OV3 in test [1] came to 7.70.

Take `CC[C@H]1CO[C@H](O[C@H]2C[C@H](NC(=O)C(F)(F)F)[C@H](O)[C@H](C)O2)C2=C1C(=O)c1ccccc1C2=O` [BCH2091, (1'S, 1R, 4R)-5,10-dioxo-4-ethyl-1-(2',3',6'-trideoxy-3'-trifluoroacetamido-L-lyxohexopyranose)-3,4,5,10-tetrahydro-1H-naphtho-[2,3-c]pyran]: the half-maximal inhibitory concentration (IC50) in test [2] (Homo sapiens) came out at 16 µM; in test [3] (Homo sapiens, SK-OV-3), 13.4 µM; in test [4] (setting [7]), 11.3 µM; in test [5] it was 32 µM; in test [6] (Homo sapiens), 3.3 µM.
